Our source for the IC50 values is US6365606B1, “6,5-fused aromatic ring systems having enhanced phosphodiesterase IV inhibitory activity” (Euro-Celtique, S.A., priority 1996, dated 2002).

Format in all cases: biochemical
Assay [1] has as its system Type IV PDE isolated from bovine tracheal smooth muscle. The experiment in a line: Type IV PDE activity, hydrolysis of [3H]-cyclic AMP. Particulars: bovine tracheal smooth muscle enzyme; 0.2 μM cyclic AMP. As for the experimental part: The Type IV PDE is isolated from bovine tracheal smooth muscle using a procedure similar to that previously described by Silver, P. J., et al.: Eur. J. Pharmacol. 150:85, 1988.(1). Eiiefly, smooth muscle from bovine trachea is minced and homogenized using a polytron in 10 volumes of an extraction buffer containing 10 mM Tris-acetate (pH 7.5), 2 mM magnesium chloride, 1 mM dithiothreitol and 2,000 units/ml of aprotinin. This and all subsequent procedures are performed at 0-4EC. The homogenate is sonicated and then centrifuged at 48,000×g for 30 minutes. The resulting supernatant is applied to a DEAE Trisacryl M column previously equilibrated with sodium acetate and dithiothreitol. After applications of the sample, the column is washed with sodium acetate/dithiothreitol, after which the different forms of PDE are eluted from the column using a linear Tris-HCl/NaCl gradient. Fractions containing Type IV PDE are collected, dialyzed and concentrated to 14% of the original volume. The concentrated fractions are diluted to 50% with ethylene glycol and stored at −20EC.
Enzyme activity is assessed by measuring the hydrolysis of [^3H]-cyclic AMP, as described by Thompson, W. J., et al.: Adv. Cyclic Nucleotide Res. 10:69, 1979. The cyclic AMP concentration used in this assay is 0.2 μM, which approximates to the Km value. Protein concentration is adjusted to ensure that no more than 15% of the available substrate is hydrolyzed during the incubation period.
All test compounds are dissolved in dimethyl sulfoxide (final concentration of 2.5%). This concentration of dimethyl sulfoxide inhibits enzyme activity by approximately 10%.
The compounds are tested over concentration range: 0.1, 1, 10, 100 uM (n=1), and IC50 determinations are made using 5 appropriate concentrations (n=2).

The target of assay [2] is T1, Type V PDE isolated from platelets (Homo sapiens, UniProt O76074).
T1 construct: Fractions that contain PDE V are pooled and dialyzed overnight; from tissue; host or cells: platelets (supernatant, DEAE-Trisacryl M fraction)
As to the kind of experiment: Type V PDE activity, hydrolysis of [3H]-cyclic GMP. Particulars: platelet enzyme; 0.2 uM cyclic GMP. As to the method: Briefly, 1-2 units of platelets are suspended in an equal volume of buffer A (20 mM Tris-HCl, pH 7.5, containing 2 mM magnesium acetate, 1 mM dithiothreitol, and 5 mM Na2EDTA) using a polytron. The proteinase inhibitor phenylmethylsulfonyl fluoride (PMSF) are also included in this buffer at a final concentration of 200 uM. […] The homogenate is then centrifuged at 100,000 rpm for 60 minutes. The supernatant is then removed and filtered through four layers of gauze and applied to a DEAE-Trisacryl M column. The column is washed with several bed volumes of buffer B (20 mM Tris-HCl, pH 7.5, containing 2 mM magnesium acetate, 1 mM diothiothreitol, and […] PMSF) and eluted by two successive linear NaCl gradients (0.05-0.15 M, 300 ml total; 0.15-0.40 M, 200 ml total). Five ml fractions are collected and assayed for cyclic AMP and cyclic GMP PDE activity. Fractions that contain PDE V are pooled and dialyzed overnight against 4 L of buffer C (20 mM Tris-HCl, pH 7.5, containing 2 mM magnesium acetate and proteinase inhibitors). […] PDE V can typically be retained for up to four weeks with little or no loss of activity.
The reference Type V PDE inhibitor zaprinast is evaluated with each assay.

Assay [3] addresses T2, Type III PDE isolated from human platelets (Homo sapiens, UniProt Q14432).
T2 construct: Fractions containing PDE III activity are pooled and dialyzed; from tissue; host or cells: human platelets (100,000 x g supernatant, DEAE-Trisacryl M fraction)
As to the kind of experiment: Type III PDE activity, hydrolysis of [3H]-cyclic AMP. Particulars: human platelet enzyme; 0.2 μM cyclic AMP. As to the method: After application of the sample, the column is washed with several bed volumes of buffer B, after which the different forms of PDE are eluted from the column using two successive linear NaCl gradients (0.05-0.15 M, 300 ml total; 0.15-0.40 M, 200 ml total). Five milliliter fractions are collected and assayed for cyclic AMP and cyclic GMP PDE activity.

T2 sequence (Q14432 whole entry): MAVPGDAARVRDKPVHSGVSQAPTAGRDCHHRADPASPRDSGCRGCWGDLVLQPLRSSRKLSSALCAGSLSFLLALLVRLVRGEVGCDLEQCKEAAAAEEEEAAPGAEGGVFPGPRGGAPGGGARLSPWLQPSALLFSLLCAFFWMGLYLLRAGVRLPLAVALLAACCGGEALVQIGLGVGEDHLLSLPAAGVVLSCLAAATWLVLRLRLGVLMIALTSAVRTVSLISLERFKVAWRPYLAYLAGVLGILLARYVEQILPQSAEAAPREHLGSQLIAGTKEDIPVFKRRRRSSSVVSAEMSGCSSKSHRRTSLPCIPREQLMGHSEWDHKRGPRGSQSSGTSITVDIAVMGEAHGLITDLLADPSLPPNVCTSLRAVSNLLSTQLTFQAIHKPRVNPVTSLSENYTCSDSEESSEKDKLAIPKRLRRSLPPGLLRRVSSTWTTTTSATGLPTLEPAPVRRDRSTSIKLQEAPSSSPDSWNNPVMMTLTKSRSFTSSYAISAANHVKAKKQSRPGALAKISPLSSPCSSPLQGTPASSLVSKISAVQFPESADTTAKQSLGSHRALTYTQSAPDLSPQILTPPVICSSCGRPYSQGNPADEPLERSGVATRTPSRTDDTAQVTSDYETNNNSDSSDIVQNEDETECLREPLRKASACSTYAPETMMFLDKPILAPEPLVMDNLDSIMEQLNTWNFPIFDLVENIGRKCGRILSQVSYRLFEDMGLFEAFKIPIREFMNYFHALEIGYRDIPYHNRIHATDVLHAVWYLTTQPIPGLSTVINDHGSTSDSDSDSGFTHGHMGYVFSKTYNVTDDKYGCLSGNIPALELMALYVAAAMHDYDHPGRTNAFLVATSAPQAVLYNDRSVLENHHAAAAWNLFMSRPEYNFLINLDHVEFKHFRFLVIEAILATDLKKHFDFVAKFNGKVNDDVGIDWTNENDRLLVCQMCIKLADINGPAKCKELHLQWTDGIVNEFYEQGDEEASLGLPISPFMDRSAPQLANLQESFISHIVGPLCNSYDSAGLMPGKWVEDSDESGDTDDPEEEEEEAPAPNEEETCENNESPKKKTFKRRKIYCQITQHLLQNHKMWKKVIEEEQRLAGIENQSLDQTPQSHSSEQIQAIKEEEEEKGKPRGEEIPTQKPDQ

In turn, `CC(C)(C)c1cc(Cc2nc3cc(Cl)cc(C#Cc4ccccn4)c3o2)cc(C(C)(C)C)c1O` [Example 1, 5-chloro-2-(3,5-di-t-butyl-4-hydroxy-benzyl)-7-(2-(2-pyridyl)-ethynyl)-benzoxazole] came in with an IC50 in assay [1] of 0.013 µM.
Same read-out and setting: under `CC(C)(C)c1cc(Cc2nc3cccc(C#Cc4ccccn4)c3o2)cc(C(C)(C)C)c1O` [Example 2] stands 0.7 µM; under `CC(C)(C)c1cc(Cc2nc3cc(Cl)cc(C#Cc4nccs4)c3o2)cc(C(C)(C)C)c1O` [Example 3, 5-chloro-2-(3,5-di-t-butyl-4-hydroxy-benzyl)-7-(2-(2-thiazolyl)-ethynyl)-benzoxazole], 0.014 µM.
Take `CC(C)(C)c1cc(Cc2nc3cc(Cl)cc(C#CCO)c3o2)cc(C(C)(C)C)c1O` [Example 4, 3-(5-chloro-2-(4-hydroxy-3,5-bis((1,1-dimethyl)ethyl)benzyl)benzoxazol-7-yl)prop-2-yn-1-ol]: the IC50 in assay [2] is 19.5 µM; in assay [3] it was greater than 300 µM; in assay [1], 0.42 µM.
The molecule `COc1ccc(C2CNC(=O)C2)cc1OC1CCCC1` (centres unmarked) [Rolipram, reference compound] returned an IC50 in assay [1] of 3.7 µM.
Same read-out and setting: to `Cn1c(=O)c2[nH]cnc2n(C)c1=O` [Theophylline, reference compound] belongs 321 µM.
